Values quoted from earlier work as cited in patent US20060073479A1 (priority 2001, published 2006).

Experiments:
[1] = system: patients treated with paclitaxel; conditions: in vivo
CYP2C8 = biological target: T1, CYP2C8 (Homo sapiens, UniProt P10632); conditions: in vitro studies
T1 sequence (P10632 1-490): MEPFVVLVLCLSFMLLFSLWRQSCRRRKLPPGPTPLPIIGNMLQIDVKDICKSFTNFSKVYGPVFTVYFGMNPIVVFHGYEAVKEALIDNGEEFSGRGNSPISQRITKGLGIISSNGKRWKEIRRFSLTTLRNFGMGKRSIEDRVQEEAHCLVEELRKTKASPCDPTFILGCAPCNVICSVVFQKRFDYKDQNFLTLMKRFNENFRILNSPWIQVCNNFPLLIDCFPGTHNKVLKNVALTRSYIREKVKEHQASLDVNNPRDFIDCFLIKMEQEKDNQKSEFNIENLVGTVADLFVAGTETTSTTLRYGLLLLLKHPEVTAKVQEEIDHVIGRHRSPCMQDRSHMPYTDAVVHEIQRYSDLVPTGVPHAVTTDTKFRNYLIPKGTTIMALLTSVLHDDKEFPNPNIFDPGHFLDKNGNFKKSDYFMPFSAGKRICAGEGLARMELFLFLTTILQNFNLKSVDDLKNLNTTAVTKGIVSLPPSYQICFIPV

CYP3A4 = CYP3A4 (Homo sapiens, UniProt P08684); conditions: in vitro studies
[2] = urine and feces

Chain of CYP3A4 (P08684 whole entry): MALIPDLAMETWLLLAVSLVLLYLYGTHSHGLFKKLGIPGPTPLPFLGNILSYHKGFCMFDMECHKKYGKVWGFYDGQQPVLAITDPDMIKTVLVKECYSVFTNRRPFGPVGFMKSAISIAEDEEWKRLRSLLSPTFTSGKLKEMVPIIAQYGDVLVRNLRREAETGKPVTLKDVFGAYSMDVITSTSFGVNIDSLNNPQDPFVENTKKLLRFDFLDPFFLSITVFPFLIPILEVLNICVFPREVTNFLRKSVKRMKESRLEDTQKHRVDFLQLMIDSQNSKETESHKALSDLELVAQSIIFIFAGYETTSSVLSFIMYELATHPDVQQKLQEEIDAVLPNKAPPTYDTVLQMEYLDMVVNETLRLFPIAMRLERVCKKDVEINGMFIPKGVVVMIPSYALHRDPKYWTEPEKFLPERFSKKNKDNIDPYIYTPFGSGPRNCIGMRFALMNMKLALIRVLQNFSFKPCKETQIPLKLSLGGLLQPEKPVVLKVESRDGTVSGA

SMILES: CC(=O)O[C@H]1C(=O)[C@@]2(C)[C@H]([C@H](OC(=O)c3ccccc3)[C@]3(O)C[C@H](OC(=O)[C@H](O)[C@@H](NC(=O)c4ccccc4)c4ccccc4)C(C)=C1C3(C)C)[C@]1(OC(C)=O)CO[C@@H]1C[C@@H]2O [paclitaxel]
- fraction of treated patients refractory to beneficial effect [1]: about one-third
- metabolism by CYP2C8 (CYP2C8): metabolized by CYP2C8
- metabolism by CYP3A4 (CYP3A4): to a lesser extent by CYP3A4

SMILES: N.N.O=C([O-])C1(C(=O)[O-])CCC1.[Pt+2] [carboplatin]
- metabolism / excretion in words [2]: relatively stable and excreted largely in unchanged form in the urine
